# Target: T1, JAK2 (JH1domain-catalytic, Y1007F,Y1008F) kinase (Homo sapiens, UniProt O60674, Y1007F/Y1008F)
# T1 construct: JAK2 (JH1domain-catalytic, Y1007F,Y1008F) kinase was expressed as N-terminal fusion; made in house; host or cells: transiently transfected HEK293 cells
# Test: JAK2 JH1 Domain Binding Assay
# Conditions: qPCR readout
# T1 sequence (O60674 849-1124 Y1007F/Y1008F limits assumed): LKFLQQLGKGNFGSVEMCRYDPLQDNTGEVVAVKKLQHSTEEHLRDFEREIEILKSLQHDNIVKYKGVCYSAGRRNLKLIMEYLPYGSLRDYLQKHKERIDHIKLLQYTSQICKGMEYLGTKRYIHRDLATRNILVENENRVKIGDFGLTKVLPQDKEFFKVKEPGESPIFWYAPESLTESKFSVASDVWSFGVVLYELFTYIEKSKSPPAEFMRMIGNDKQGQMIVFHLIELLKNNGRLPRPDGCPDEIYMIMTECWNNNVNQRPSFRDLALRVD
row,SMILES,Kd [nM]
1,"Cn1c(Nc2cc(C(F)(F)F)cn(CCO)c2=O)nc2ncc(Oc3cnn4ccccc34)c(Cl)c21 [Example I-103, 3-((7-chloro-1-methyl-6-(pyrazolo[1,5-a]pyridin-3-yloxy)-1H-imidazo[4,5-b]pyridin-2-yl)amino)-1-(2-hydroxyethyl)-5-(trifluoromethyl)pyridin-2(1H)-one]",< 10
2,"COc1c(Oc2cnn3ccncc23)cnc2nc(Nc3cc(C4CC4)cn(CC(C)(C)OC)c3=O)n(C)c12 [Example I-106, 5-cyclopropyl-3-((7-methoxy-1-methyl-6-(pyrazolo[1,5-a]pyrazin-3-yloxy)-1H-imidazo[4,5-b]pyridin-2-yl)amino)-1-(2-methoxy-2-methylpropyl)pyridin-2(1H)-one]",10 to 50
3,"Cn1c(Nc2cc(C3CC3)cn(-c3cccnc3)c2=O)nc2ncc(Oc3cnn4ccncc34)c(Cl)c21 [Example I-108, 3-((7-chloro-1-methyl-6-(pyrazolo[1,5-a]pyrazin-3-yloxy)-1H-imidazo[4,5-b]pyridin-2-yl)amino)-5-cyclopropyl-2H-[1,3′-bipyridin]-2-one]",< 10
4,"Cn1c(Nc2cc(C(F)(F)F)cn(-c3cccnc3)c2=O)nc2ncc(Oc3cnn4ccncc34)c(Cl)c21 [Example I-109, 3-((7-chloro-1-methyl-6-(pyrazolo[1,5-a]pyrazin-3-yloxy)-1H-imidazo[4,5-b]pyridin-2-yl)amino)-5-(trifluoromethyl)-2H-[1,3′-bipyridin]-2-one]",< 10
5,"COc1c(Oc2cnn3ccccc23)cnc2nc(Nc3cc(C4CC4)cn([C@H]4C[C@H](O)C4)c3=O)n(C)c12 [Example I-111, trans-5-cyclopropyl-1-(3-hydroxycyclobutyl)-3-((7-methoxy-1-methyl-6-(pyrazolo[1,5-a]pyridin-3-yloxy)-1H-imidazo[4,5-b]pyridin-2-yl)amino)pyridin-2(1H)-one]",< 10
6,"COc1c(Oc2cnn3ccccc23)cnc2nc(Nc3cc(C4CC4)cn([C@H]4C[C@@H](O)C4)c3=O)n(C)c12 [Example I-112, cis-5-cyclopropyl-1-(3-hydroxycyclobutyl)-3-((7-methoxy-1-methyl-6-(pyrazolo[1,5-a]pyridin-3-yloxy)-1H-imidazo[4,5-b]pyridin-2-yl)amino)pyridin-2(1H)-one]",< 10
7,"Cn1cc(-n2cc(C3CC3)cc(Nc3nc4ncc(Oc5cnn6ccccc56)c(Cl)c4n3C)c2=O)cn1 [Example I-115, 3-((7-chloro-1-methyl-6-(pyrazolo[1,5-a]pyridin-3-yloxy)-1H-imidazo[4,5-b]pyridin-2-yl)amino)-5-cyclopropyl-1-(1-methyl-1H-pyrazol-4-yl)pyridin-2(1H)-one]",< 10
8,"Cn1nc(C2CC2)cc(Nc2nc3ncc(Oc4cnn5ccccc45)c(Cl)c3n2C)c1=O [Example I-116, 4-((7-chloro-1-methyl-6-(pyrazolo[1,5-a]pyridin-3-yloxy)-1H-imidazo[4,5-b]pyridin-2-yl)amino)-6-cyclopropyl-2-methylpyridazin-3(2H)-one]",< 10
9,"Cn1c(Nc2cc(C3CC3)cn(CCCN3CCC(F)(F)C3)c2=O)nc2ncc(Oc3cnn4ccncc34)c(Cl)c21 [Example I-117, 3-((7-chloro-1-methyl-6-(pyrazolo[1,5-a]pyrazin-3-yloxy)-1H-imidazo[4,5-b]pyridin-2-yl)amino)-5-cyclopropyl-1-(3-(3,3-difluoropyrrolidin-1-yl)propyl)pyridin-2(1H)-one]",< 10
10,"Cn1c(Nc2cc(C(F)(F)F)cn(CCCN3CCC(F)(F)C3)c2=O)nc2ncc(Oc3cnn4ccncc34)c(Cl)c21 [Example I-118, 3-((7-chloro-1-methyl-6-(pyrazolo[1,5-a]pyrazin-3-yloxy)-1H-imidazo[4,5-b]pyridin-2-yl)amino)-1-(3-(3,3-difluoropyrrolidin-1-yl)propyl)-5-(trifluoromethyl)pyridin-2(1H)-one]",10 to 50

# — patent US12043632B2, “6-heteroaryloxy benzimidazoles and azabenzimidazoles as JAK2 inhibitors” (Ajax Therapeutics, Inc., priority 2020, dated 2024)
